“Also recorded” adds a separate entry of the source.
What was measured:
[1] = system: Norepinephrine (NE) reuptake in rat brain synaptosomes; assay: Inhibition of rat synaptosomal uptake of 3H-norepinephrine; format: biochemical; conditions: rat diencephalic-mid brain crude synaptosomes; 3H-NE 2×10^-8 M; Hill analysis
Text: (§1) Male Wistar rats weighing approximately 180-200 g are decapitated and their brains rapidly removed and dissected according to the method of Glowinski and Iversen. Glowinski, J. and Iversen, L. L., Regional studies of catecholamines in the rat brain I. The disposition of 3H-norepinephrine, 3H-dopamine and 3H-DOPA in various regions of the brain. J. Neurochem. 13:655-669, 1966.
(§2) Striatal tissues are pooled from three rat brains for the uptake of 3H-dopamine (3H-DA) and diencephalic-mid brain areas were used for the uptake of 3H-norepinephrine (3H-NE) and 3H-serotonin (3H-5HT). The tissues are immediately weighed and homogenized with a teflon-glass pestle homogenizer in 10 volumes of ice cold 0.32 M sucrose. The homogenates are centrifuged at 4° C. at 900×g for 10 minutes to remove nuclear particles and cellular debris. The supernatants are carefully withdrawn and transferred into clean test tubes kept in ice. Aliquots of these preparations containing crude synaptic nerve endings are used in subsequent uptake studies.
(§3) Amine uptake in crude synaptosomes is determined by a method essentially the same as that described by Snyder and Coyle, Snyder, S. H. and Coyle, J. T. Regional differences in 3H-norepinephrine and 3H-dopamine uptake into rat brain homogenates. J. Pharmacol. Exp. Ther. 165:78-86, 1969. Briefly, a 0.1 ml aliquot of the above tissue preparation is added to test tubes containing 3.7 ml of Krebs-Ringer phosphate buffer pH 7.4 with glucose (2 mg/ml), calcium chloride 0.024%, ascorbic acid (0.2 mg/ml) and nialamide (1.24×10^-5M). 1-(3,4-Dichlorophenyl)-3-azabicyclo[3.1.0]hexane hydrochloride at varying concentrations (0.01-2.5 μM) is added in a 0.1 ml volume. The incubation mixtures are agitated at 37° C. for 10 minutes under an atmosphere of 95% oxygen and 5% CO2 in a Dubnoff metabolic shaker to ensure irreversible inhibition of monoamine oxidase (MAO). After this initial pre-incubation period, the tubes are returned to the ice bath. 3H-DA, 3H-NE or 3H-5HT is added in a 0.1 ml volume to give a final concentration of labeled amine of 2×10^-8 M, and the incubation at 37° C. is continued for an additional 4 min. A set of tubes serving as control (uptake at 0° C.) is left in an ice bath. After the final incubation period, the samples are cooled in ice and then centrifuged at 4° C. at 10,000×g. The supernatant fluid is gently poured off from each tube. The surface of the pellet of each sample is washed with 5 ml of ice cold 0.9% sodium chloride which is then aspirated off without disturbing the pellet. The pellet is resuspended in a cintillation fluid ad radioactivity was determined. Protein content in the tissue samples is determined by the method of Lowry et al. Lowry, O. H., Rosebrough, N. J., Farr, A. L. and Randall, R. J. Protein measurement with the folin reagent. J. Biol. Chem. 193:265, 1951. The concentration of drug which inhibits the uptake of the labeled amine by 50% is determined by Hill analysis of the data.

[2] = system: Serotonin (5-HT) reuptake in rat brain synaptosomes; assay: Inhibition of rat synaptosomal uptake of 3H-serotonin; format: biochemical; conditions: rat diencephalic-mid brain crude synaptosomes; 3H-5HT 2×10^-8 M; Hill analysis
Text: as §1, §2, §3

[3] = system: Dopamine (DA) reuptake in rat brain synaptosomes; assay: Inhibition of rat synaptosomal uptake of 3H-dopamine; format: biochemical; conditions: rat striatal crude synaptosomes; 3H-DA 2×10^-8 M; Hill analysis
Text: as §1
Striatal tissues are pooled from three rat brains for the uptake of 3H-dopamine (3H-DA) and diencephalic-mid brain areas were used for the uptake of 3H-norepinephrine (3H-NE) and 3H-serotonin (3H-5HT). The tissues are immediately weighed and homogenized with a teflon-glass pestle homogenizer in 10 volumes of ice cold 0.32 M sucrose. […]
Amine uptake in crude synaptosomes is determined by a method essentially the same as that described by Snyder and Coyle, Snyder, S. H. and Coyle, J. T. Regional differences in 3H-norepinephrine and 3H-dopamine uptake into rat brain homogenates. […] The pellet is resuspended in a cintillation fluid ad radioactivity was determined. Protein content in the tissue samples is determined by the method of Lowry et al. Lowry, O. H., Rosebrough, N. J., Farr, A. L. and Randall, R. J. Protein measurement with the folin reagent. […] The concentration of drug which inhibits the uptake of the labeled amine by 50% is determined by Hill analysis of the data.

[4] = system: Male Wistar rats; assay: Free-choice ethanol (6% v/v) vs tap water drinking, Part I; format: in vivo, rat; conditions: 30 mg/kg i.p. 7 days, mean ± S.D.
Method: (§4) Male Wistar rats are presented with an everyday free-choice between a 6% (v/v) ethanol solution and tap water. Following a seven-day baseline period, which establishes a pattern of stable drinking, only those animals whose consumption is greater than 50% of their total fluid intake are given intraperitoneal injections of three drugs. In part I citalopram (positive control) a neuronal serotonin uptake inhibitor at a dose of 30 mg/kg, […], and 1-(3,4-dichlorophenyl)-3-azabicyclo[3.1.0]hexane hydrochloride, also a serotonin uptake inhibitor, at doses of 5, 10 and 20 mg/kg are given by intraperitoneal injection for seven days. In part II, animals are given intraperitoneal injections of diazepam at a dose of 10 mg/kg and again the positive control used is citalopram at 30 mg/kg. Treatment period for part II also is over a seven-day period. Following the seven-day treatment period, a post-treatment period which lasted for an additional seven days is conducted where the animals are presented with a free choice between ethanol and water in order to determine the rate of recovery of ethanol drinking. During baseline, drug treatment and post-treatment periods, ethanol consumption by the rats is calculated in terms of daily ethanol preference ratio (volume of ethanol per volume of total daily fluid intake) and in terms of daily absolute of ethanol ingested (g/kg body weight).
(§5) Two hundred (200) drug-naive male Wistar rats obtained from the Canadian Breeding Farm Laboratories in Charles River Canada are used. All animals weigh between 180-200 g at the beginning of the experiment.
(§6) All animals are individually housed in stainless steel cages, in a room regulated for constant temperature, humidity and a 12-hour light/dark cycle (7:00 a.m.-7:00 p.m.). Each cage is equipped with two calibrated glass Richter tubes to deliver the fluids (ethanol and water) to the animals. All animals are presented with a free choice between ethanol and tap water throughout the experiment. The drinking vessels are randomly reversed in order to avoid bias generated by a position preference in the animals. In addition, Purina Rat Chow is made available throughout the experiment on an ad libitum basis.
(§7) At approximately the same time every day, 1300 h, the volume in mls of ethanol and tap water consumed by each animal is recorded. All tubes are then removed from the cages, rinsed and refilled with the appropriate fluids, i.e., ethanol solution and tap water. Also, all animals are weighed and their corresponding body weights recorded. At this time, additional food is provided.
(§8) Drugs used in part I are dissolved in Ringers solution to form the required doses. Drugs used in part II are suspended in a vehicle which consists of a 2% pre-boiled starch solution containing 5% polyethylene glycol 400 and tween 80 (1 drop/10 ml vehicle). All drugs are administered intraperitoneally according to the schedule (see Treatment period).
Group 2--citalopram 30 mg/kg (n=10)
Group 3--1-(3,4-dichlorophenyl)-3-azabicyclo[3.1.0]hexane hydrochloride 5 mg/kg (n=10)
Group 4--1-(3,4-dichlorophenyl)-3-azabicyclo[3.1.0]hexane hydrochloride 10 mg/kg (n=10)
Group 5--1-(3,4-dichlorophenyl)-3-azabicyclo[3.1.0]hexane hydrochloride 20 mg/kg (n=10)
(§9) Post-treatment period:--Upon cessation of the drug treatment period, the animals are presented with a free choice between 6% ethanol and tap water for an additional 7 days in order to determine the rate of recovery of ethanol drinking.

[5] = system: Male Wistar rats; assay: Free-choice ethanol (6% v/v) vs tap water drinking, Part II; format: in vivo, rat; conditions: for Ethanol Intake / Food Consumption / Ethanol Preference / Total Fluid Intake: mean ± S.D.
Method: as §4, §5, §6, §7, §8
Group 2--citalopram 30 mg/kg (n=7)
Group 3--diazepam 10 mg/kg (n=7)
as §9

[6] = Treatment period, listed as citalopram, 30 mg/kg
[7] = 30 mg/kg i.p. 7 days, Baseline period
[8] = 30 mg/kg i.p. 7 days, Baseline period, 30 mg/kg
[9] = 30 mg/kg i.p. 7 days, Baseline period, listed as citalopram, 30 mg/kg
[10] = 30 mg/kg i.p. 7 days, Post-Treatment period
[11] = 30 mg/kg i.p. 7 days, Treatment period, 30 mg/kg
[12] = 30 mg/kg i.p. 7 days, Treatment period, listed as citalopram, 30 mg/kg
[13] = 10 mg/kg i.p. 7 days, Baseline period
[14] = 10 mg/kg i.p. 7 days, Post-Treatment period
[15] = 10 mg/kg i.p. 7 days, Treatment period, 10 mg/kg
[16] = 10 mg/kg i.p. 7 days, Treatment period, listed as diazepam, 10 mg/kg

## COc1ccc(C23CNCC2C3)cc1Br (racemic) [±H 3-Br-4-OCH3]
[1]
  IC50: 318 nM
[2]
  IC50: 260 nM

## c1ccc(C23CNCC2C3)cc1 (racemic) [±H H]
[1]
  IC50: 401 nM
[2]
  IC50: 470 nM

## Cc1ccc(C23CNCC2C3)cc1 (racemic) [±H p-CH3]
[1]
  IC50: 741 nM
[2]
  IC50: 137 nM
[3]
  IC50: 2360 nM

## Clc1ccc(C23CNCC2C3)cc1 (racemic) [±H p-Cl]
[1]
  IC50: 274 nM
[2]
  IC50: 169 nM

## Fc1ccc(C23CNCC2C3)cc1 (racemic) [±H p-F]
[2]
  IC50: 811 nM

## Cc1ccc(C23CNCC2C3)cc1 (single isomer, unassigned) [+H p-CH3]
[1]
  IC50: 215 nM
[2]
  IC50: 96 nM

## Clc1ccc(C23CNCC2C3)cc1 (single isomer, unassigned) [+H p-Cl]
[1]
  IC50: 279 nM
[2]
  IC50: 55 nM

## CN(C)CCCC1(c2ccc(F)cc2)OCc2cc(C#N)ccc21 (stereo not shown) [Citalopram]
[4]; Baseline period
  Ethanol Intake: 4.49 ± 1.18 g/kg body weight
  Ethanol Preference: 75.78 ± 18.09%
  Food Consumption: 20.14 ± 1.71 g/day
  Total Fluid Intake: 124.19 ± 12.35 mL/kg/day
[4]; Post-Treatment period
  Ethanol Intake: 3.32 ± 1.86 g/kg body weight
  Ethanol Preference: 57.81 ± 32.23%
  Food Consumption: 21.47 ± 1.94 g/day
  Total Fluid Intake: 121.47 ± 14.98 mL/kg/day
[4]; Treatment period
  Ethanol Intake: 2.34 ± 1.44 g/kg body weight
[4]; Treatment period, 30 mg/kg
  Ethanol Preference: 61.06 ± 35.09%
  Food Consumption: 11.96 ± 3.56 g/day
  Total Fluid Intake: 82.70 ± 9.45 mL/kg/day
[4]; [6]
  Ethanol Preference: slight but insignificant decrease in ethanol preference
  Food Consumption: significant decrease in food consumption
  Total Fluid Intake: 82.70 mL/kg/day
[5]; [7]
  Ethanol Intake: 4.86 ± 1.09 g/kg body weight
  Food Consumption: 19.82 ± 1.87 g/day
[5]; [8]
  Ethanol Preference: 86.16 ± 14.74%
  Total Fluid Intake: 117.70 ± 11.00 mL/kg/day
[5]; [9]
  Ethanol Preference: 86.16%
  Total Fluid Intake: 117.70 mL/kg/day
[5]; [10]
  Ethanol Intake: 3.87 ± 1.91 g/kg body weight
  Ethanol Preference: 68.90%
  Food Consumption: 19.86 g/day
  Total Fluid Intake: 114.14 mL/kg/day
[5]; [11]
  Ethanol Intake: 2.95 ± 1.59 g/kg body weight
  Ethanol Preference: 69.17 ± 30.25%
  Food Consumption: 14.20 ± 2.76 g/day
  Total Fluid Intake: 86.79 ± 13.15 mL/kg/day
[5]; [12]
  Ethanol Intake: partial effect
  Ethanol Preference: 69.17%
  Food Consumption: 14.20 g/day
  Total Fluid Intake: 86.79 mL/kg/day
[5]; 30 mg/kg i.p. 7 days, Treatment vs baseline
  Food intake lower than baseline level during treatment: approximately 25%

## CN1C(=O)CN=C(c2ccccc2)c2cc(Cl)ccc21 [Diazepam]
[5]; [13]
  Ethanol Intake: 3.92 ± 1.75 g/kg body weight
  Ethanol Preference: 73.21 ± 26.62%
  Food Consumption: 21.24 ± 1.94 g/day
  Total Fluid Intake: 111.17 ± 11.23 mL/kg/day
[5]; [14]
  Ethanol Intake: 3.95 ± 1.91 g/kg body weight
  Ethanol Preference: 72.15%
  Food Consumption: 20.98 g/day
  Total Fluid Intake: 111.57 mL/kg/day
[5]; [15]
  Ethanol Intake: 3.48 ± 1.51 g/kg body weight
  Ethanol Preference: 72.76 ± 28.03%
  Food Consumption: 20.75 ± 2.04 g/day
  Total Fluid Intake: 99.03 ± 8.85 mL/kg/day
[5]; [16]
  Ethanol Intake: no effect on ethanol intake; also recorded: no effect to attenuate voluntary ethanol consumption
  Ethanol Preference: virtually no change
  Food Consumption: no effect on food intake
  Total Fluid Intake: does not affect total fluid intake

Source: US6204284A, “Use of 1-(substitutedphenyl)-3-azabicyclo[3.1.0]hexanes for the treatment of chemical dependencies” (priority 1995, dated 2001)
